Results as given in patent EP1541559A1, “5-SUBSTITUTED ISOQUINOLINE DERIVATIVE” (Asahi Kasei Pharma Corporation, priority 2002, dated 2004).
Structures can show the parent of a compound that is named as a salt. Where two headings read alike, the source gives them in different places.

Experiments:
[1] = tested on: myosin regulatory light chain; assay: Action on amount of phosphorylated myosin regulatory light chain in the cells (Test Example 1); format: cell-based, human; details: neutrophils of healthy volunteers, reaction with test compound at 25°C for 5 minutes, read-out: Inhibition of myosin regulatory light chain phosphorylation (IC50: µM)
Method: The neutrophils were washed with PBS(-) and resuspended in Hanks' Balanced Salt Solution (HBSS+, Gibco) to prepare a cell suspension (8 x 10^6/ml). The cell suspension was diluted to 5 x 10^6/ml, introduced into Eppendorf tubes in a volume of 0.4 ml each, then 0.1 ml each of solutions of a test compound at various concentrations were added to the suspension and allowed to react at 25°C for 5 minutes. After the reaction, 0.1 ml of trichloroacetic acid solution was added to each reaction, the reaction mixture was gently shaken and centrifuged at 12,000 rpm (4°C, 5 minutes), and the supernatant was removed. Subsequently, 3 μl of 1 M Tris solution was added to the residue, the mixture was further mixed with 50 μl of extraction buffer (8 M urea, 0.02% 2-mercaptoethanol, 0.002% bromophenol blue) and left stand at room temperature for 1 hour. Then, the reaction mixture was loaded on a spin column (0.45 μm, Millipore) to remove the insoluble solids and a sample buffer for SDS polyacrylamide gel electrophoresis (25 mM, Tris-HCl pH 6.8, 2.5% 2-mercaptoethanol, 2% sodium dodecylsulfate, 5% sucrose, 0.002% bromophenol blue as final concentrations) was added, and 10 μl of each sample was subjected to electrophoresis. […] J. Physiol., 274, […]-[…] (1998)), which specifically recognize the phosphorylated myosin regulatory light chain, and donkey anti-mouse IgG (Chemicon) conjugated with horseradish peroxidase (HRP-labeled). The band of the phosphorylated myosin regulatory light chain was detected on a film by using ECL Plus Kit (Amersham Pharmacia Biotech). This band was subjected to quantification using a densitometer. By using this value, the inhibitory ratio (%) for phosphorylation of the myosin regulatory light chain was calculated by using the following equation.

Neutrophils = assay: Neutrophil migration inhibitory action, Boyden Chamber, FMLP (Test Example 5); format: cell-based, human; details: FMLP (1 µM), migration at 37°C for 30 minutes, read-out: Neutrophil migration inhibition IC50
Method: Neutrophils were isolated from 50 to 100 ml of peripheral blood collected from healthy donors by the method described in Test Example 1 to obtain a cell suspension (8 x 10^6/ml). Subsequently, solutions of a test compound at various concentrations were introduced into wells of a 96-well plate in a volume of 125 µl per well, the cell suspension of an equivalent volume was added to it and the plate was preincubated at room temperature for 5 minutes. During the preincubation, FMLP (1 µM, Sigma) solution was added to the lower chamber to set Boyden Chamber, the preincubated cell suspension was added to the upper chamber in a volume of 200 µl per well, and the cells were allowed to migrate at 37°C under 5% carbon dioxide for 30 minutes. The filter after the migration was collected, and the non-migrated cells adhered to the surface that faced the upper chamber were carefully wiped off. Then, the migrated cells on the back surface were stained with DifQuick dye solution (International Reagents), washed with water and dried, and then absorbance was measured at 595 nm. The inhibition ratio against migration (%) of a test compound was calculated by using the following equation: Migration inhibition ratio (%) = (1 -Absorbance of the group with addition of test compound /Absorbance of the group without addition of test compound) x 100 [formula]

thoracic aorta = assay: Vasoconstriction inhibitory action on aorta rings constricted with phenylephrine (Test Example 2); set-up: species or system Rats (Wistar, 11-week old); details: for vasoconstriction inhibitory action: result in words, aorta constricted with phenylephrine (1 µM)
Source text: Rats (Wistar, 11-week old) were bleeded to death and laparotomized to take out the thoracic aorta.

Japanese white rabbit = assay: Intraocular pressure reducing action (Test Example 4); format: in vivo; details: result in words
Method: A Japanese white rabbit having a body weight of about 2 kg was placed in a positioner and naturalized for one week before the experiment. An ophthalmologic local […] (Benoxil) was administered to the left eye, and then intraocular pressure was measured by using a tonometer (Classic 30, Solan). The initial value of the intraocular pressure was measured, then 50 μl of a test compound (1% aqueous solution) was dropped to the left eye, and after 2 hours, the intraocular pressure was measured. The intraocular pressure reducing action of the test compounds is shown in Table 7 mentioned below as ratios (%) of reduction of intraocular pressure based on the initial value of the intraocular pressure.

[2] = Homo sapiens, Neutrophil, 5 min
[3] = Homo sapiens, Neutrophil, 0.5 h

4-(4-Cyano-5-isoquinolyl)aminopiperidine hydrochloride [Example 143]
IC50 [1]: ≤ 40 µM

NCCCN(CCCCc1ccccc1)S(=O)(=O)c1cccc2cnccc12 [Example 4, N-[(5-Isoquinolyl)sulfonyl]-N-(4-phenylbutyl)-1,3-propylenediamine hydrochloride]
IC50 [1, 2]: 30 µM
IC50 (Neutrophils; [3]): 1 to 10 µM

NCCCN(CCS(=O)(=O)c1ccccc1)S(=O)(=O)c1cccc2cnccc12 [Example 6, N-[(5-Isoquinolyl)sulfonyl]-N-[2-(phenylsulfonyl)ethyl]-1,3-propylenediamine hydrochloride]
IC50 [1, 2]: 20 µM
IC50 (Neutrophils; [3]): 1 to 10 µM

NCCN(CCS(=O)(=O)c1ccccc1)S(=O)(=O)c1cccc2c(N)nccc12 [Example 9, N-[(1-Amino-5-isoquinolyl)sulfonyl]-N-[2-(phenylsulfonyl)ethyl]ethylenediamine hydrochloride]
IC50 [1, 2]: 15 µM
IC50 (Neutrophils; [3]): 1 to 10 µM

Cl.NCCCN(CCS(=O)(=O)c1ccccc1)S(=O)(=O)c1cccc2c(O)nccc12 [Example 13, N-[(1-Hydroxy-5-isoquinolyl)sulfonyl]-N-[2-(phenylsulfonyl)ethyl]-1,3-propylenediamine hydrochloride]
IC50 [1, 2]: 20 µM
vasoconstriction inhibitory action (thoracic aorta): significant vasoconstriction inhibitory action
IC50 (Neutrophils; [3]): 1 to 10 µM

NCCCN(CCCc1ccccc1)S(=O)(=O)c1cccc2c(O)nccc12 [Example 14, N-[(1-Hydroxy-5-isoquinolyl)sulfonyl]-N-(3-phenylpropyl)-1,3-propylenediamine hydrochloride]
IC50 [1, 2]: 20 to 40 µM
IC50 (Neutrophils; [3]): 1 to 10 µM

NCCCNc1cccc2cnccc12 [Example 16, N-(5-Isoquinolyl)-1,3-propylenediamine hydrochloride]
IC50 [1, 2]: 20 to 40 µM
IC50 (Neutrophils; [3]): 10 to 40 µM

NCCCCNc1cccc2cnccc12 [Example 18, N-(5-Isoquinolyl)-1,4-butylenediamine hydrochloride]
IC50 [1, 2]: 20 to 40 µM
IC50 (Neutrophils; [3]): 10 to 40 µM

c1cc(NCC2CCNCC2)c2ccncc2c1 [Example 21, 4-(5-Isoquinolyl)aminomethylpiperidine hydrochloride]
IC50 [1, 2]: ≤ 40 µM
IC50 ([1]; hydrochloride): ≤ 20 µM
IC50 (Neutrophils; [3]): 10 to 40 µM

c1cc(NCC2CCCNC2)c2ccncc2c1 (stereo not drawn) [Example 22, 3-(5-Isoquinolyl)aminomethylpiperidine hydrochloride]
IC50 [1, 2]: ≤ 40 µM

N[C@H]1CC[C@@H](Nc2cccc3cnccc23)CC1 [Example 23, Cis-N-(5-Isoquinolyl)-1,4-cyclohexanediamine hydrochloride]
IC50 [1, 2]: 1 to 20 µM
IC50 (Neutrophils; [3]): 1 to 10 µM

N[C@H]1CC[C@H](Nc2cccc3cnccc23)CC1 [Example 24, Trans-N-(5-isoquinolyl)-1,4-cyclohexanediamine hydrochloride]
IC50 [1, 2]: 1 to 20 µM
IC50 (Neutrophils; [3]): 1 to 10 µM

NC1CCCC(Nc2cccc3cnccc23)C1 (stereo not drawn) [Example 25, N-(5-Isoquinolyl)-1,3-cyclohexanediamine hydrochloride]
IC50 [1, 2]: 20 to 40 µM
IC50 (Neutrophils; [3]): 10 to 40 µM

NCc1cccc(CNc2cccc3cnccc23)c1 [Example 26, N-(5-Isoquinolyl)-1,3-xylylenediamine hydrochloride]
IC50 [1, 2]: 20 to 40 µM
IC50 (Neutrophils; [3]): 10 to 40 µM

c1cc(OC2CCNCC2)c2ccncc2c1 [Example 27, 4-[(5-Isoquinolyl)oxy]piperidine hydrochloride]
IC50 [1, 2]: 1 to 20 µM
IC50 (Neutrophils; [3]): ≤ 40 µM

NCCN(CCCc1ccccc1)S(=O)(=O)c1cccc2cnccc12 [Example 30, N-[(5-isoquinolyl)sulfonyl]-N-(3-phenylpropyl)ethylenediamine]
IC50 [1, 2]: 20 to 40 µM
IC50 (Neutrophils; [3]): 1 to 10 µM

Fc1cncc2cccc(NC3CCNCC3)c12 [Example 104, 4-(4-Fluoro-5-isoquinolyl)aminopiperidine hydrochloride]
IC50 [1, 2]: ≤ 40 µM
IC50 ([1]; hydrochloride): ≤ 20 µM
IC50 (Neutrophils; [3]): ≤ 40 µM

CSc1cncc2cccc(NC3CCNCC3)c12.Cl [Example 105, 4-(4-Methylthio-5-isoquinolyl)aminopiperidine hydrochloride]
IC50 [1, 2]: ≤ 40 µM
vasoconstriction inhibitory action (thoracic aorta): significant vasoconstriction inhibitory action

Cl.NC1CCC(Nc2cccc3cncc(Br)c23)CC1 (stereo not drawn) [Example 107, N-(4-Bromo-5-isoquinolyl)-1,4-cyclohexanediamine hydrochloride]
IC50 [1, 2]: ≤ 40 µM
IC50 ([1]; hydrochloride): ≤ 20 µM
intraocular pressure reducing activity (Japanese white rabbit): significant intraocular pressure reducing activity

C=Cc1cncc2cccc(NC3CCNCC3)c12.Cl [Example 112, 4-(4-Vinyl-5-isoquinolyl)aminopiperidine hydrochloride]
IC50 [1, 2]: ≤ 40 µM
IC50 ([1]; hydrochloride): ≤ 20 µM
vasoconstriction inhibitory action (thoracic aorta): significant vasoconstriction inhibitory action
IC50 (Neutrophils; [3]): ≤ 40 µM

Cl.Oc1nccc2c(NC3CCNCC3)cccc12 [Example 115, 4-(1-Hydroxy-5-isoquinolyl)aminopiperidine hydrochloride]
intraocular pressure reducing activity (Japanese white rabbit): significant intraocular pressure reducing activity

NCCCN(CCCc1cccc(C(=O)O)c1)S(=O)(=O)c1cccc2cnccc12 [Example 128, N-[(5-Isoquinolyl)sulfonyl]-N-[3-(3-carboxy)phenylpropyl]-1,3-propylenediamine hydrochloride]
IC50 ([1]; hydrochloride): ≤ 20 µM
IC50 (Neutrophils): ≤ 40 µM

COC(=O)c1ccc(CCCN(CCCN)S(=O)(=O)c2cccc3cnccc23)cc1 [Example 130, N-[(5-Isoquinolyl)sulfonyl]-N-[3-(4-methoxycarbonyl)phenylpropyl]-1,3-propylenediamine hydrochloride]
IC50 ([1]; hydrochloride): ≤ 20 µM

COC(=O)c1cccc(CCCN(CCCN)S(=O)(=O)c2cccc3cnccc23)c1 [Example 131, N-[(5-Isoquinolyl)sulfonyl]-N-[3-(3-methoxycarbonyl)phenylpropyl]-1,3-propylenediamine hydrochloride]
IC50 ([1]; hydrochloride): ≤ 20 µM
IC50 (Neutrophils): ≤ 40 µM

Nc1cncc2cccc(O[C@H]3CC[C@H](N)CC3)c12 [Example 137, Trans-4-[(4-amino-5-isoquinolyl)oxy]cyclohexylamine hydrochloride]
IC50 [1, 2]: ≤ 40 µM
IC50 ([1]; hydrochloride): ≤ 20 µM
IC50 (Neutrophils; [3]): ≤ 40 µM

CCc1cncc2cccc(O[C@H]3CC[C@H](N)CC3)c12 [Example 138, Trans-4-[(4-ethyl-5-isoquinolyl)oxy]cyclohexylamine hydrochloride]
IC50 [1, 2]: ≤ 40 µM
IC50 ([1]; hydrochloride): ≤ 20 µM

Nc1nccc2c(NC3CCNCC3)cccc12 [Example 142, 4-(1-Amino-5-isoquinolyl)aminopiperidine hydrochloride]
IC50 [1, 2]: ≤ 40 µM
IC50 ([1]; hydrochloride): ≤ 20 µM

N#Cc1cncc2cccc(O[C@H]3CC[C@H](NCCO)CC3)c12 [Example 156, Trans-1-[(4-cyano-5-isoquinolyl)oxy]-4-[(2-hydroxyethyl)amino]cyclohexane hydrochloride]
IC50 [1, 2]: ≤ 40 µM
IC50 ([1]; hydrochloride): ≤ 20 µM

Cc1cnc(O)c2cccc(N[C@H]3CC[C@H](N)CC3)c12 [Example 160, Trans-N-(1-hydroxy-4-methyl-5-isoquinolyl)-1,4-cyclohexanediamine hydrochloride]
IC50 [1, 2]: ≤ 40 µM
IC50 ([1]; hydrochloride): ≤ 20 µM
IC50 (Neutrophils; [3]): ≤ 40 µM

CC1CNCCN1S(=O)(=O)c1cccc2cnccc12 (stereo not drawn) [Example H-7, 1-(5-isoquinolinesulfonyl)-2-methylpiperazine, reference compound]
inhibition at 1 µM (thoracic aorta; Rattus norvegicus, read-out: Vasoconstriction inhibitory action (relaxation ratio) (%)): 22%
